The values that follow come from ChEMBL document CHEMBL1155858, “Derivatives of (3S)-N-(biphenyl-2-ylmethyl)pyrrolidin-3-amine as selective noradrenaline reuptake inhibitors: Reducing P-gp mediated efflux by modulation of H-bond acceptor capacity” (Bioorg Med Chem Lett, 2008).

One data set concerns Liver microsomes. The data set is described as follows: Metabolic stability in human liver microsomes. Type of data set: ADME, Microsome. For orientation: Liver microsomes are vesicles of endoplasmic reticulum, rich in cytochrome P450 enzymes.
The target of a further data set is Cytochrome P450 2D6 (Homo sapiens, UniProt P10635). The data set is described as follows: Inhibition of CYP2D6. It is filed as ADME.
The target of a further data set is CYP2C9 (Homo sapiens, UniProt P11712). The data set is described as follows: Inhibition of CYP2C9 at 3 uM. It is filed as ADME.
Data set [1] concerns the target T1, Sodium-dependent dopamine transporter (Homo sapiens, UniProt Q01959).
Description: Inhibition of [3H]dopamine uptake at human DAT expressed in HEK293 cells
The next data set addresses CYP2D6 (Homo sapiens, UniProt P10635). The data set can be described thus: Inhibition of CYP2D6 at 3 uM. It is filed as ADME.
The target of data set [2] is T2, Sodium-dependent serotonin transporter (Homo sapiens, UniProt P31645).
Description: Inhibition of [3H]5HT uptake at human SERT expressed in HEK293 cells
For a further data set, the target named is CYP1A2 (Homo sapiens, UniProt P05177). The data set is described as follows: Inhibition of CYP1A2 at 3 uM. It is filed as ADME.
Another data set concerns the target CYP3A4 (Homo sapiens, UniProt P08684). The data set can be described thus: Inhibition of CYP3A4 at 3 uM. It is filed as ADME.
Data set [3] concerns the target T3, Muscarinic acetylcholine receptor M3 (Homo sapiens, UniProt P20309). The data set can be described thus: Inhibition of muscarinic M3 receptor at 10 uM.
Target sequence in this assay (P20309 whole entry, looked up): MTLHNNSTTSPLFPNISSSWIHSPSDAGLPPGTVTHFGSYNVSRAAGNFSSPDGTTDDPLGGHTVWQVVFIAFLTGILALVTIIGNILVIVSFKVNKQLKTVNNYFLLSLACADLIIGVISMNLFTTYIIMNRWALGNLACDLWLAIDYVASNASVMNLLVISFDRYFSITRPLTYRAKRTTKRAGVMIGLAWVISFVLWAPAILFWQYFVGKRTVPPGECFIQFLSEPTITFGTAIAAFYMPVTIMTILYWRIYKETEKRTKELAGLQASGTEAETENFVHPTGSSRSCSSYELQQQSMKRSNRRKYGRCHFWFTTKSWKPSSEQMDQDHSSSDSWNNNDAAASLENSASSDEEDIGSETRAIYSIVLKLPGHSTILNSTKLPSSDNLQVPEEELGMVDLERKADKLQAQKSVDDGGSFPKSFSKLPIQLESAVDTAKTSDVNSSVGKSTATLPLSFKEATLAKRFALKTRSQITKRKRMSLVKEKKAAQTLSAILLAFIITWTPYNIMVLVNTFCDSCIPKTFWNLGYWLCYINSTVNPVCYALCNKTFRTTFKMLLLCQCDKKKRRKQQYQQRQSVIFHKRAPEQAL
The target in data set [4] is T1, Sodium-dependent dopamine transporter. The data set can be described thus: Inhibition of [3H]dopamine reuptake at human DAT expressed in HEK293 cells by SPA. It is filed as cell-based.
Data set [5] is described as follows: Apparent permeability from apical to basolateral side of the human Caco-2 membrane. Type of data set: ADME, cell-based.
Data set [6] in a line: Inhibition of sodium channel site 2.
A short description of data set [7]: Apparent permeability from basolateral to apical side of the human Caco-2 membrane. Type of data set: ADME, cell-based. A general note: Passage across Caco-2 layers is used to estimate intestinal permeability.
Data set [8] has as its target T4, 5-hydroxytryptamine receptor 2B (Homo sapiens, UniProt P41595). The data set is described as follows: Activity at 5HT2B receptor.
The next data set deals with Rattus norvegicus. The data set can be described thus: Increase in noradrenaline level in interstitial fluid of sc dosed conscious rat prefrontal cortex relative to baseline. It is filed as functional.
The nature of data set [9]: Distribution coefficient, log D at pH 7.4. Type of data set: physicochemical. The note with it: octanol/water.
The target of data set [10] is T5, 5-hydroxytryptamine receptor 2A (Homo sapiens, UniProt P28223). The data set is described as follows: Activity at 5HT2A receptor.
The target in data set [11] is T2, Sodium-dependent serotonin transporter. The data set can be described thus: Inhibition of [3H]citalopram uptake at human 5HTT expressed in HEK293 cells by SPA. It is filed as cell-based.
Data set [12] has as its target 5-hydroxytryptamine receptor 2C (Homo sapiens) (UniProt P28335). The data set can be described thus: Inhibition of 5HT2C receptor at 10 uM.
For data set [13], the target named is T4, 5-hydroxytryptamine receptor 2B. The data set is described as follows: Inhibition of 5HT2B receptor at 10 uM.
The nature of data set [14]: Apparent permeability from basolateral to apical side of the MDCK cells expressing MDR1 gene. Type of data set: ADME, cell-based, Canis lupus familiaris. The note with it: dog.
A short description of data set [15]: Inhibition of [3H]NA uptake at rat NET expressed in HEK293 cells. It is filed as cell-based.
The nature of data set [16]: Dissociation constant, pKa of the compound. It is filed as physicochemical.
The next data set deals with T6, Cytochrome P450 1A2 (Homo sapiens, UniProt P05177).
T6 sequence (P05177 whole entry): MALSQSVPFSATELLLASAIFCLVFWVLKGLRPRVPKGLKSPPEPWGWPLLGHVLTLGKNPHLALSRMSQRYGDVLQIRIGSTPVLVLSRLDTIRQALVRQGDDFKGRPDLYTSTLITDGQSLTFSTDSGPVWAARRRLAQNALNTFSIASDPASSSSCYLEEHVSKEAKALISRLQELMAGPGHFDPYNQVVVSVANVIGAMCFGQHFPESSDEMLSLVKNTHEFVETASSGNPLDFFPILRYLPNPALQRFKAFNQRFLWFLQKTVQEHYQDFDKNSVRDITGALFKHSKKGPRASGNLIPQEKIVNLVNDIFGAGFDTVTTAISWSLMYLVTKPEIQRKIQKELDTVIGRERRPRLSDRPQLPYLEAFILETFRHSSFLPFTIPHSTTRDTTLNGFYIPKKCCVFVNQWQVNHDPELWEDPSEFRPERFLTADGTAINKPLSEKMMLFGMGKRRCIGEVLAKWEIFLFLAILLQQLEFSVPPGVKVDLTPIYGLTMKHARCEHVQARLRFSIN
The data set can be described thus: Inhibition of CYP1A2. It is filed as ADME.

A short description of data set [17]: Inhibition of L type calcium channel.
The next data set relates to Hepatocyte. The data set is described as follows: Metabolic stability in human hepatocytes assessed as intrinsic clearance. It is filed as ADME, cell-based, Liver.
Data set [18] addresses Sodium-dependent noradrenaline transporter (Homo sapiens, UniProt P23975). The data set can be described thus: Inhibition of [3H]nisoxetine reuptake at human NET expressed in HEK293 cells by SPA. Type of data set: cell-based.
For data set [19], the target named is 5-hydroxytryptamine receptor 2C (Homo sapiens, UniProt P28335). The data set can be described thus: Activity at 5HT2C receptor.
Data set [20] concerns the target T3, Muscarinic acetylcholine receptor M3. The data set can be described thus: Inhibition of muscarinic M3 receptor.
Target sequence in this assay (P20309 whole entry): as the sequence (P20309 whole entry, looked up) above
For the next data set, the target named is Cytochrome P450 2C9 (Homo sapiens, UniProt P11712). The data set is described as follows: Inhibition of CYP2C9. Type of data set: ADME.
The nature of data set [21]: Metabolic stability in human liver microsomes assessed as intrinsic clearance. Type of data set: ADME, Microsome.
Data set [22] deals with T5, 5-hydroxytryptamine receptor 2A. The data set can be described thus: Inhibition of 5HT2A receptor at 10 uM.
Data set [23] in a line: Apparent permeability from apical to basolateral side of the MDCK cells expressing MDR1 gene. Type of data set: ADME, cell-based, Canis lupus familiaris. To be noted: dog.
The target in a further data set is Cytochrome P450 3A4 (Homo sapiens, UniProt P08684). The data set is described as follows: Inhibition of CYP3A4. Type of data set: ADME.
Chain of Cytochrome P450 3A4 (P08684 whole entry): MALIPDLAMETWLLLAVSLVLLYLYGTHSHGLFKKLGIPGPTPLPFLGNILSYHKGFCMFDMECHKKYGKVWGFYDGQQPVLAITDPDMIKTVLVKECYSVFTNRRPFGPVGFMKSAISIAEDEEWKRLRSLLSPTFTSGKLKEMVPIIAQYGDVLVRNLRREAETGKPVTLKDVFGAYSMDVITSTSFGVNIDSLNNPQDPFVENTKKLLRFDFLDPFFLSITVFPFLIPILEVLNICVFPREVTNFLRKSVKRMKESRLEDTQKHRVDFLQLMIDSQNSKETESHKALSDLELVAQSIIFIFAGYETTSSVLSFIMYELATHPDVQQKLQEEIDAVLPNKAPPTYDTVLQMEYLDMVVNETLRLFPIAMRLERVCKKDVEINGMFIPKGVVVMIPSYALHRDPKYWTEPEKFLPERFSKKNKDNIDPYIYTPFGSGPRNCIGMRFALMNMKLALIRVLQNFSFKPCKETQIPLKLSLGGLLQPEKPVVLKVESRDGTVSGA

T2 sequence (P31645 whole entry): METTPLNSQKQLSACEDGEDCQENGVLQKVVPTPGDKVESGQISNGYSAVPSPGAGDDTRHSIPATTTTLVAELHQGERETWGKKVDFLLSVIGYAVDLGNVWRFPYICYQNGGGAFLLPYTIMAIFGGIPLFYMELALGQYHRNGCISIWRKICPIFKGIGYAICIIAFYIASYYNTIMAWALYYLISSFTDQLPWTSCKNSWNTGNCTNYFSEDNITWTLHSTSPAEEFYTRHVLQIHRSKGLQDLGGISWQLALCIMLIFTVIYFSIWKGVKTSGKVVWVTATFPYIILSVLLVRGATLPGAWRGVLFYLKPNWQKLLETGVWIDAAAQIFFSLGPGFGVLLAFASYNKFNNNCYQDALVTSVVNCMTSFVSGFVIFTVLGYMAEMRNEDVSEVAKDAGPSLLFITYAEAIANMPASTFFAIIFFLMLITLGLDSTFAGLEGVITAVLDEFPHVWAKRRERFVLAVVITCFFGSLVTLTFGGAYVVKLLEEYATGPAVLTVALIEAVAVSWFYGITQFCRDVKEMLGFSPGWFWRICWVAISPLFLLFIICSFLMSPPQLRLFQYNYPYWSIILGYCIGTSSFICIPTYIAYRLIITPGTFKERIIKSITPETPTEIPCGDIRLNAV
T1 sequence (Q01959 whole entry): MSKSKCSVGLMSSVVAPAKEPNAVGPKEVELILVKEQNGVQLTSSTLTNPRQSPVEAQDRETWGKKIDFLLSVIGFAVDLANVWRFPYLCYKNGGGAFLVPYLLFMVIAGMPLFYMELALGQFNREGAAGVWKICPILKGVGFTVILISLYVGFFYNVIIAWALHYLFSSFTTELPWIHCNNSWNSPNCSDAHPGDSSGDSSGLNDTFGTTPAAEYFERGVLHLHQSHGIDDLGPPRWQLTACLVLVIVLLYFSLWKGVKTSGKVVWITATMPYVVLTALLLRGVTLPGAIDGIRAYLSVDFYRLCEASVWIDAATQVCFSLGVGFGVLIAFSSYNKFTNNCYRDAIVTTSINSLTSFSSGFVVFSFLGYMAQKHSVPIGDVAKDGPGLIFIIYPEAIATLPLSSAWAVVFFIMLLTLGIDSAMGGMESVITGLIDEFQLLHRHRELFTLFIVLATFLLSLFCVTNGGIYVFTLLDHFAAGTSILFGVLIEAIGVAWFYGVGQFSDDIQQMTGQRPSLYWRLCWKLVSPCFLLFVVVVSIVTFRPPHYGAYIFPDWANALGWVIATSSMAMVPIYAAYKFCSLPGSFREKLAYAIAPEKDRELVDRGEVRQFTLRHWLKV
Chain of Cytochrome P450 2D6 (P10635 whole entry): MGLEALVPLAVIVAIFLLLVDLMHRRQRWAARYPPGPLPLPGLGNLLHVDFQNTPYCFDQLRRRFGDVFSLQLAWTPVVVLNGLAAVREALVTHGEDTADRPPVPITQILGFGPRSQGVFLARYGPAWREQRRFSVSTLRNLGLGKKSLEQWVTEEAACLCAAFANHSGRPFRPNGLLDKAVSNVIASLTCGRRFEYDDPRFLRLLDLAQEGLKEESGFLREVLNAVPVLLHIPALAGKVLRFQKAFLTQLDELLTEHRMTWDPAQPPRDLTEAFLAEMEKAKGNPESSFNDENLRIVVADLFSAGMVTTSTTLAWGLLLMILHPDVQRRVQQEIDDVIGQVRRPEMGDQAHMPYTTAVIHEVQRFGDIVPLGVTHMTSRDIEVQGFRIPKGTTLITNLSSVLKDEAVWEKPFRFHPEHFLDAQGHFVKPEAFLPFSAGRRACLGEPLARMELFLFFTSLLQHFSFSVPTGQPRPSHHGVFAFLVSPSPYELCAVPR
T5 sequence (P28223 whole entry): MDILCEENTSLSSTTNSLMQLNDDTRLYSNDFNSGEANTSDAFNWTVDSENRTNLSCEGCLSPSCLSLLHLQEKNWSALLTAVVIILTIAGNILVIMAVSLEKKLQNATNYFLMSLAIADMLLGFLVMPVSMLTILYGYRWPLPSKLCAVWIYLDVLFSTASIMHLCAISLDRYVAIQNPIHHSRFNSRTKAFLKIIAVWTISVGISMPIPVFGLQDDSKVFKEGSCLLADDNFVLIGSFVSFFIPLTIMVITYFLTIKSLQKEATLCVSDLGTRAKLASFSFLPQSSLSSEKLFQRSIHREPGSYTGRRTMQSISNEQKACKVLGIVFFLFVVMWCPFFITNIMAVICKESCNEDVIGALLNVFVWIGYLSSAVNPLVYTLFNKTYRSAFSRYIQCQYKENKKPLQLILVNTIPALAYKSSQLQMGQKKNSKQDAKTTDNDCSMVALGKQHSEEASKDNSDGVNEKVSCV
T4 sequence (P41595 whole entry): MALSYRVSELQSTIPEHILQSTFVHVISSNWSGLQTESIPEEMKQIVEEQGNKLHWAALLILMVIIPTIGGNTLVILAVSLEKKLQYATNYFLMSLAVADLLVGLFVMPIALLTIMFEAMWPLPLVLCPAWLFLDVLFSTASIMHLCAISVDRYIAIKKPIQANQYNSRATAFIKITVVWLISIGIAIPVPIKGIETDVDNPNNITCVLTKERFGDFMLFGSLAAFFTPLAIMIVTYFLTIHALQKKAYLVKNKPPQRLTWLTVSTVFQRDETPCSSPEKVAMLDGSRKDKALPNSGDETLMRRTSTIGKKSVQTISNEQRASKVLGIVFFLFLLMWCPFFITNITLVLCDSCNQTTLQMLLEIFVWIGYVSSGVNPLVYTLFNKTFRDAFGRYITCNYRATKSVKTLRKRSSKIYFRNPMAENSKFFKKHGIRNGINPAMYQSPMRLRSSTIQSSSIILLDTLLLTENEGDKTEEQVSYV
Chain of Sodium-dependent noradrenaline transporter (P23975 whole entry): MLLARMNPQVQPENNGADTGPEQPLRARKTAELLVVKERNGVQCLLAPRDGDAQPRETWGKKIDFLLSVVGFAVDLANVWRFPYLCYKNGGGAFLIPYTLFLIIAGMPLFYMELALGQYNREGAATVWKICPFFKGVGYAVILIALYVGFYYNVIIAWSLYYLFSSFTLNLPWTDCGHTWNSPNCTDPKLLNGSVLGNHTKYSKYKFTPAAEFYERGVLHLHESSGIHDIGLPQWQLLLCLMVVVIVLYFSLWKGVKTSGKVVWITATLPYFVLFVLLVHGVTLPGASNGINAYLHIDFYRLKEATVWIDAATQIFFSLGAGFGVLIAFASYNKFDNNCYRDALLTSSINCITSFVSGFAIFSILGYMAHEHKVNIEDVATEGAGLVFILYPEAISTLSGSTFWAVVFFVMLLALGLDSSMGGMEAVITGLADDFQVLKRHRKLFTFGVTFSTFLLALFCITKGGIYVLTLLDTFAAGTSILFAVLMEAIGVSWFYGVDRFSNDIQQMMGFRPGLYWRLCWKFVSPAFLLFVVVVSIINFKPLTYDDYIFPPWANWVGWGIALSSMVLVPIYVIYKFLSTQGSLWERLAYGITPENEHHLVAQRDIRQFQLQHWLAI
Chain of 5-hydroxytryptamine receptor 2C (P28335 whole entry): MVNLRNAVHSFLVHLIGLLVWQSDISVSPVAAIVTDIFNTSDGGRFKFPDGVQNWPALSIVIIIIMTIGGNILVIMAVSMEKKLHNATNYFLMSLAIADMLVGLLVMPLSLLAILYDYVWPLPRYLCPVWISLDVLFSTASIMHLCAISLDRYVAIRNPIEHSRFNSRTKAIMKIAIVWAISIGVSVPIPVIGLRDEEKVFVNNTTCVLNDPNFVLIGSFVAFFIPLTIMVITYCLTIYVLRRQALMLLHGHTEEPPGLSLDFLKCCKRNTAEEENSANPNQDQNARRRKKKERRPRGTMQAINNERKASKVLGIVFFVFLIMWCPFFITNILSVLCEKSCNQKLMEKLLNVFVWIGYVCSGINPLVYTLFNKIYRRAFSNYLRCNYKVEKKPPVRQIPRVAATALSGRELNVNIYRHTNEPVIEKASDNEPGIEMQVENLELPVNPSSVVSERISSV
Chain of 5-hydroxytryptamine receptor 2C (Homo sapiens) (P28335 whole entry): as above
Chain of CYP3A4 (P08684 whole entry): as the sequence (P08684 whole entry) above

The term IC50 denotes the point on the concentration scale where inhibition reaches its midpoint. What is called inhibition is the percentage by which the read-out fell short of the control. Lower therefore signals a weak effect. In turn, `CC(C)C(=O)N(Cc1cccc(Cl)c1Cl)[C@H]1CCNC1` had a t1/2 with Liver microsomes of over 2 h. Also, the figures for the IC50 (at Cytochrome P450 2D6; in data set [1]; in data set [2]) were over 3000 nM, 1250 nM and 12 nM, respectively. The inhibition at 3 µM was under 40% on CYP2C9, under 10% on CYP2D6, under 40% on CYP1A2 and under 40% against CYP3A4.

Broadly, the Ki is the equilibrium dissociation constant of an inhibitor or competing ligand from its target. A word on the Papp A→B: it is the apparent permeability from the apical to the basolateral side of a cell layer. A word on the Papp B→A: it is the apparent permeability from the basolateral to the apical side of a cell layer. One may read the EC50 as the concentration needed to bring the measured effect to its halfway point. High values mean lower potency in that assay, low ones higher potency in that assay. As a reminder, the logD is the decadic logarithm of the distribution of all forms, ionised or not, between an organic phase and buffer at a given pH. Low values mean lower lipophilicity, high ones higher lipophilicity. As a reminder, the pKa is the negative logarithm of the acid dissociation constant. As usually defined, the microsomal CLint is the rate of metabolic loss divided by the concentration. With `CCOC(=O)N(Cc1ccccc1-c1ccccc1)[C@H]1CCNC1`, the inhibition in data set [3], in data set [12], in data set [13] and in data set [22] was over 80% in each case. Moreover, the Ki in data set [4] stood at 3030 nM; in data set [6] it was 1100 nM; in data set [11], 1110 nM; in data set [15] it was 2.5 nM; in data set [17], 1500 nM; in [18] it was 8 nM. The compound further returned a Ki in [20] of 635 nM. Further, the Papp A→B worked out at 27 ×10⁻⁶ cm/s in data set [5] and 22 ×10⁻⁶ cm/s in data set [23]. Also, the IC50 was 1210 nM against Cytochrome P450 2D6, over 3000 nM against Cytochrome P450 1A2, over 3000 nM against Cytochrome P450 2C9 and over 3000 nM against Cytochrome P450 3A4. In addition, the basolateral-to-apical permeability (Papp B→A) is 28 ×10⁻⁶ cm/s in data set [7] and 44 ×10⁻⁶ cm/s in data set [14]. Besides, the EC50 in data set [8], in data set [10] and in data set [19] was over 10000 nM throughout. In the data set with Rattus norvegicus, the Activity turned out to be 400%. For the same compound, the logD in data set [9] is 1.1. Also, the pKa in [16] stood at 9.6. The CL in the data set with Hepatocyte was under 5 µL/min/mg. The microsomal CLint in data set [21] is under 7 µL/min/mg.
